Values joined by “and” are separate entries in the source; they are usually repeats but may differ in a detail not shown here. Equal values may be shown once.
Experiments:
IRP1 = target: T1, IRP1 (Homo sapiens, UniProt P21399); test: Microscale thermophoresis (MST) binding of IRE RNAs to IRP1; conditions: cell free, labeled IRP1 2 nM, without Posiphen; read-out: Kd of IRE RNA binding to IRP1
T1 sequence (P21399 1-889): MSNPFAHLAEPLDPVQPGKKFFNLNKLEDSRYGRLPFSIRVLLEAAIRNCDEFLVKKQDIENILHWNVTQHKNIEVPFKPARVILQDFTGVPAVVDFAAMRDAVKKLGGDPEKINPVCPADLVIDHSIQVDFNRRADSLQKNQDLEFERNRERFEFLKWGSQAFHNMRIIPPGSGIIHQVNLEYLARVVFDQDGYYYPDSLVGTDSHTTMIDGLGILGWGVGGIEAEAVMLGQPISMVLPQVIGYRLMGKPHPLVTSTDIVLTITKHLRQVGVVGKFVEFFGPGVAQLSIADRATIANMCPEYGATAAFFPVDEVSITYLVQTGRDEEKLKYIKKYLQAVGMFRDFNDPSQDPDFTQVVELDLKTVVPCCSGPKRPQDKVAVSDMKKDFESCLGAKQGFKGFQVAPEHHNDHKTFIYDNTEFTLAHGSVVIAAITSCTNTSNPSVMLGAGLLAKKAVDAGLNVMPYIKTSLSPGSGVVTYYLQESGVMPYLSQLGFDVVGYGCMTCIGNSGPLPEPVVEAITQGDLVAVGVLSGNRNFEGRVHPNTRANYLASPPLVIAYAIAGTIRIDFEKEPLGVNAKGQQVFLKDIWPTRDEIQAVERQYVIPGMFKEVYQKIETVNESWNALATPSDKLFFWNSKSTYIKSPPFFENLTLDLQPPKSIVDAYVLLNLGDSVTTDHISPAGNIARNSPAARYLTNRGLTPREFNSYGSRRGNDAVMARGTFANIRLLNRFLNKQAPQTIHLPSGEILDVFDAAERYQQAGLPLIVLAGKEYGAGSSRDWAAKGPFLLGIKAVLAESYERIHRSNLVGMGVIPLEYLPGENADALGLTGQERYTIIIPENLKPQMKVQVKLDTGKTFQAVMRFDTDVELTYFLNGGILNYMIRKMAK
Method: (§1) Microscale thermophoresis (MST) binding experiments were done to assess binding in vitro between the different components. MST binding experiments were performed by incubating N-termini labeled protein (2 nM) with serial 2-fold dilutions of IRE RNAs, H-Ferritin ([…]) or APP ([…]) for 10 min in incubation buffer (Tris pH 7.4, 0.5%, 15 mM NaCl and 0.1% Prionex). IPR-1 was N-termini labeled with RED-NHS amino reactive labeling kit (NanoTemper Technologies, Germany). For determination of Posiphen binding, reactions containing IPR1 (2 nM), IRP1/H-Ferritin (2, 250 nM), or IRP1/APP (2, 600 nM) were incubated for 10 min with 2-fold dilutions of Posiphen tartrate. After incubation, samples were centrifuged at 13,000 rpm for 2 minutes before being loaded into standard capillaries provided by the manufacturer. Fluorescence values from the binding reactions were determined using the Monolith NT.115 (Nano Temper Technologies). Kd values were using the NanoTemper Technologies software. Conditions were standardized.

[1] = target: T2, IRP1/H-Ferritin RNA complex (Homo sapiens, UniProt P21399); test: MST binding of Posiphen to IRP1/H-Ferritin RNA complex; conditions: IRP1/H-Ferritin 2, 250 nM; Posiphen tartrate
T2 sequence (P21399 1-889): T1 sequence (P21399 1-889)
Method: as §1

IRP1/APP RNA complex = target: T3, IRP1/APP RNA complex (Homo sapiens, UniProt P21399); test: MST binding of Posiphen to IRP1/APP RNA complex; conditions: IRP1/APP 2, 600 nM; Posiphen tartrate; read-out: Kd, binding of Posiphen to APP IRE/IRP1 complex
T3 sequence (P21399 1-889): T1 sequence (P21399 1-889)
Method: as §1

aSYN = aSYN in enteric nervous system of transgenic PD mice; format: in vivo; conditions: PAC-Tg(SNCAA53T) mice, 21 weeks
Method: In Example 6, the effect of Posiphen on mice homozygous for the PAC-Tg(SNCAA53T) transgene was tested over the course of 21 weeks.

[2] = cited from earlier work
retinal neurons = test: Acute glaucoma in rats, retinal cell death; format: in vivo; conditions: acute glaucoma by raised intraocular pressure
Source text: When acute glaucoma is induced by increasing the pressure in an eye, the retina gets destroyed. In Example 10, acute glaucoma was induced in rats by increasing intraocular pressure by micro-injection of saline into the anterior chamber. This induces large amounts of apoptotic cell death in the retina. There are twice as many dead cells in high pressure retinas of rats treated with vehicle versus control untreated rats. Posiphen rescued 72% of the retinal neurons. The results are depicted in FIG. 23. Administration of Posiphen to those rats preserves the retina and protects the retinal cells from dying.

[3] = tested on: neurotoxic aggregating proteins; test: Translation of neurotoxic aggregating proteins in healthy mouse brain; format: in vivo
Source text: Therefore, the original data concerning the effects of Posiphen working under all conditions is wrong. It only works in stressed cells, dividing cells and sick cells, e.g., those cells that have high levels of iron.

SNCA = conditions: cited from earlier work

Molecule: H-Ferritin: H-Ferritin IRE RNA oligo GGGGUUUCCUGCUUCAACAGUGCUUGGACGGAACC (RNA, backbone not given here)
- Kd (IRP1): 88.5 nM

Molecule: APP: APP IRE RNA oligo GGUGGCGGCGCGGGCAGAGCAAGGACGCGGCGGAU (RNA, backbone not given here)
- Kd (IRP1): 225 nM

Molecule: CN1CC[C@]2(C)c3cc(OC(=O)Nc4ccccc4)ccc3N(C)C12 (stereo partly drawn) [Posiphen, (3aR)-1,3a,8-trimethyl-1,2,3,3a,8,8a-hexahydropyrrolo[2,3-b]indol-5-ylphenylcarbamate]
- binding of Posiphen to the IRP1/H-Ferritin RNA complex [1]: no binding
- Kd (IRP1/APP RNA complex): 3.2 nM and 3.22 nM
- inhibition of aSYN in enteric nerves (aSYN): about 40%
- tolerability ([2]; doses up to 4×60 mg daily×10 days, humans): well tolerated
- terminal half-life in plasma ([2]; human, all doses): 4.3 to 4.7 h
- retinal neurons rescued (retinal neurons): 72%
- translation of neurotoxic aggregating proteins [3]: does not inhibit

Molecule: C[C@]12CC[C@H]3[C@@H](CC[C@]4(O)C[C@@H](O)CC[C@]34C=O)[C@@]1(O)CC[C@@H]2C1=CC(=O)OC1 [strophanthidine]
- SNCA expression in neural cells, Western blotting (SNCA): selectively blocked

From patent US12390448B2, “Prevention or of disease states due to metal dis-homeostasis via administration of posiphen to healthy or sick humans” (ANNOVIS BIO, INC., priority 2017, dated 2025)
